Tested on: pressor response to AII
Test: Assay D: In Vivo Intragastric Pressor Assay Response for AII Antagonists of Examples #1 and #3
Set-up: species or system rat (male Sprague-Dawley)
Details: 3 mg/kg gavage
Experimental: Assay D: In Vivo Intragastric Pressor Assay Response for AII Antagonists of Examples #1 and #3
Male Sprague-Dawley rats weighing 225-300 grams were anesthetized with methohexital (30 mg/kg, i.p.) and catheters were implanted into the femoral artery and vein. The catheters were tunneled subcutaneously to exit dorsally, posterior to the head and between the scapulae. The catheters were filled with heparin (1000 units/ml of saline). The rats were returned to their cage and allowed regular rat chow and water ad libitum. After full recovery from surgery (3-4 days), rats were placed in Lucite holders and the arterial line was connected to a pressure transducer. Arterial pressure was recorded on a Gould polygraph (mmHg). Angiotensin II was administered as a 30 ng/kg bolus via the venous catheter delivered in a 50 μl volume with a 0.2 ml saline flush. The pressor response in mm Hg was measured by the difference from pre-injection arterial pressure to the maximum pressure achieved. The AII injection was repeated every 10 minutes until three consecutive injections yielded responses within 4 mmHg of each other. These three responses were then averaged and represented the control response to AII. The test compound was suspended in 0.5% methylcellulose in water and was administered by gavage. The volume administered was 2 ml/kg body weight. The standard dose was 3 mg/kg. […] The pressor response to AII was measured at each time point. The rats were then returned to their cage for future testing. A minimum of 3 days was allowed between tests. Percent inhibition was calculated for each time point following gavage by the following formula: [(Control Response-Response at time point)/Control Response]×100.

CCCCc1nc(CCCC)n(Cc2ccc(-c3ccccc3-c3nnn[nH]3)cn2)n1 [Example 1, 5-[2-[6-[(3,5-dibutyl-1H-1,2,4-triazol-1-yl)methyl]-3-pyridinyl]phenyl]-1H-tetrazole]
% Inhibition of Blood Pressure Elevation (Rat A, 0 min): 0% | % Inhibition of Blood Pressure Elevation (Rat A, 30 min): 14% | % Inhibition of Blood Pressure Elevation (Rat A, 45 min): 20% | % Inhibition of Blood Pressure Elevation (Rat A, 60 min): 40% | % Inhibition of Blood Pressure Elevation (Rat A, 75 min): 33% | % Inhibition of Blood Pressure Elevation (Rat A, 90 min): 37% | % Inhibition of Blood Pressure Elevation (Rat A, 120 min): 37% | % Inhibition of Blood Pressure Elevation (Rat A, 150 min): 40% | % Inhibition of Blood Pressure Elevation (Rat A, 180 min): 33% | % Inhibition of Blood Pressure Elevation (Rat B, 0 min): 0% | % Inhibition of Blood Pressure Elevation (Rat B, 30 min): 11% | % Inhibition of Blood Pressure Elevation (Rat B, 45 min): 15% | % Inhibition of Blood Pressure Elevation (Rat B, 60 min): 26% | % Inhibition of Blood Pressure Elevation (Rat B, 75 min): 23% | % Inhibition of Blood Pressure Elevation (Rat B, 90 min): 21% | % Inhibition of Blood Pressure Elevation (Rat B, 120 min): 23% | % Inhibition of Blood Pressure Elevation (Rat B, 150 min): 23% | % Inhibition of Blood Pressure Elevation (Rat B, 180 min): 13% | % Inhibition of Blood Pressure Elevation (Rat C, 0 min): 0% | % Inhibition of Blood Pressure Elevation (Rat C, 30 min): 16% | % Inhibition of Blood Pressure Elevation (Rat C, 45 min): 6% | % Inhibition of Blood Pressure Elevation (Rat C, 60 min): 29% | % Inhibition of Blood Pressure Elevation (Rat C, 75 min): 2% | % Inhibition of Blood Pressure Elevation (Rat C, 90 min): 10% | % Inhibition of Blood Pressure Elevation (Rat C, 120 min): 16% | % Inhibition of Blood Pressure Elevation (Rat C, 150 min): -4% | % Inhibition of Blood Pressure Elevation (Rat C, 180 min): 10% | % Inhibition of Blood Pressure Elevation (Rats A-C Mean ± SE, 30 min): 14 ± 2% | % Inhibition of Blood Pressure Elevation (Rats A-C Mean ± SE, 45 min): 14 ± 4% | % Inhibition of Blood Pressure Elevation (Rats A-C Mean ± SE, 60 min): 31 ± 4% | % Inhibition of Blood Pressure Elevation (Rats A-C Mean ± SE, 75 min): 20 ± 9% | % Inhibition of Blood Pressure Elevation (Rats A-C Mean ± SE, 90 min): 23 ± 8% | % Inhibition of Blood Pressure Elevation (Rats A-C Mean ± SE, 120 min): 26 ± 6% | % Inhibition of Blood Pressure Elevation (Rats A-C Mean ± SE, 150 min): 20 ± 13% | % Inhibition of Blood Pressure Elevation (Rats A-C Mean ± SE, 180 min): 19 ± 7%

CCCCc1nc(CCCC)n(Cc2ccc(-c3ccccc3-c3nnn[nH]3)nc2)n1 [Example 3, 5-[2-[5-[(3,5-dibutyl-1H-1,2,4-triazol-1-yl)methyl]-2-pyridinyl]phenyl]-1H-tetrazole]
% Inhibition of Blood Pressure Elevation (Rat A, 0 min): 0% | % Inhibition of Blood Pressure Elevation (Rat A, 30 min): 64% | % Inhibition of Blood Pressure Elevation (Rat A, 45 min): 67% | % Inhibition of Blood Pressure Elevation (Rat A, 60 min): 52% | % Inhibition of Blood Pressure Elevation (Rat A, 75 min): 45% | % Inhibition of Blood Pressure Elevation (Rat A, 90 min): 60% | % Inhibition of Blood Pressure Elevation (Rat A, 120 min): 41% | % Inhibition of Blood Pressure Elevation (Rat A, 150 min): 38% | % Inhibition of Blood Pressure Elevation (Rat A, 180 min): 24% | % Inhibition of Blood Pressure Elevation (Rat B, 0 min): 0% | % Inhibition of Blood Pressure Elevation (Rat B, 30 min): 55% | % Inhibition of Blood Pressure Elevation (Rat B, 45 min): 71% | % Inhibition of Blood Pressure Elevation (Rat B, 60 min): 55% | % Inhibition of Blood Pressure Elevation (Rat B, 75 min): 53% | % Inhibition of Blood Pressure Elevation (Rat B, 90 min): 50% | % Inhibition of Blood Pressure Elevation (Rat B, 120 min): 50% | % Inhibition of Blood Pressure Elevation (Rat B, 150 min): 53% | % Inhibition of Blood Pressure Elevation (Rat B, 180 min): 40% | % Inhibition of Blood Pressure Elevation (Rat C, 0 min): 0% | % Inhibition of Blood Pressure Elevation (Rat C, 30 min): 15% | % Inhibition of Blood Pressure Elevation (Rat C, 45 min): 12% | % Inhibition of Blood Pressure Elevation (Rat C, 60 min): 46% | % Inhibition of Blood Pressure Elevation (Rat C, 75 min): 27% | % Inhibition of Blood Pressure Elevation (Rat C, 90 min): 46% | % Inhibition of Blood Pressure Elevation (Rat C, 120 min): 53% | % Inhibition of Blood Pressure Elevation (Rat C, 150 min): 50% | % Inhibition of Blood Pressure Elevation (Rat C, 180 min): 62% | % Inhibition of Blood Pressure Elevation (Rat D, 0 min): 0% | % Inhibition of Blood Pressure Elevation (Rat D, 30 min): 21% | % Inhibition of Blood Pressure Elevation (Rat D, 45 min): 14% | % Inhibition of Blood Pressure Elevation (Rat D, 60 min): 36% | % Inhibition of Blood Pressure Elevation (Rat D, 75 min): 36% | % Inhibition of Blood Pressure Elevation (Rat D, 90 min): 26% | % Inhibition of Blood Pressure Elevation (Rat D, 120 min): 34% | % Inhibition of Blood Pressure Elevation (Rat D, 150 min): 29% | % Inhibition of Blood Pressure Elevation (Rat D, 180 min): 3% | % Inhibition of Blood Pressure Elevation (Rat E, 0 min): 0% | % Inhibition of Blood Pressure Elevation (Rat E, 30 min): 52% | % Inhibition of Blood Pressure Elevation (Rat E, 45 min): 43% | % Inhibition of Blood Pressure Elevation (Rat E, 60 min): 38% | % Inhibition of Blood Pressure Elevation (Rat E, 75 min): 43% | % Inhibition of Blood Pressure Elevation (Rat E, 90 min): 29% | % Inhibition of Blood Pressure Elevation (Rat E, 120 min): 29% | % Inhibition of Blood Pressure Elevation (Rat E, 150 min): 16% | % Inhibition of Blood Pressure Elevation (Rat E, 180 min): 16% | % Inhibition of Blood Pressure Elevation (Rats A-E Mean ± SE, 0 min): 0% | % Inhibition of Blood Pressure Elevation (Rats A-E Mean ± SE, 30 min): 42 ± 10% | % Inhibition of Blood Pressure Elevation (Rats A-E Mean ± SE, 45 min): 41 ± 13% | % Inhibition of Blood Pressure Elevation (Rats A-E Mean ± SE, 60 min): 46 ± 4% | % Inhibition of Blood Pressure Elevation (Rats A-E Mean ± SE, 75 min): 41 ± 4% | % Inhibition of Blood Pressure Elevation (Rats A-E Mean ± SE, 90 min): 42 ± 6% | % Inhibition of Blood Pressure Elevation (Rats A-E Mean ± SE, 120 min): 41 ± 5% | % Inhibition of Blood Pressure Elevation (Rats A-E Mean ± SE, 150 min): 37 ± 7% | % Inhibition of Blood Pressure Elevation (Rats A-E Mean ± SE, 180 min): 29 ± 10%

Source: US5602153A, “Method of using 1-arylheteroarylalkyl substituted-1H-1,2,4-triazole compounds for treatment of a giaucoma disorder” (G.D. Searle & Co., priority 1993, dated 1997)
